From ChEMBL document CHEMBL1141725, “DNA-templated click chemistry for creation of novel DNA binding molecules” (Bioorg Med Chem Lett, 2008) come the findings set out here.

The nature of assay [1]: Binding affinity to double strand CGCG12 DNA by fluorescence titration.
Assay [2] can be described thus: Stabilization of double strand CGCG12 DNA assessed as change in melting temperature.
Assay [3] can be described thus: Stabilization of double strand AATT12 DNA assessed as change in melting temperature.
Assay [4] in a line: Binding affinity to double strand AATT12 DNA by fluorescence titration.

`N=C(N)NCCC[C@@H](CN1CCC[C@H]1C(N)=O)NC(=O)CNC(=O)[C@H](CCCNC(=N)N)NC(=O)[C@@H]1CCCN1C(=O)CCCc1cn(CCCNc2c3ccccc3nc3ccccc23)nn1`: the Ks in assay [1] is 3.6 ×10⁵ /M; in assay [4], 7.3 ×10⁵ /M. Also, the ΔTm in assay [2] turned out to be 3.9 °C; in assay [3], 8.1 °C.

As for `[N-]=[N+]=NCCCNc1c2ccccc2nc2ccccc12`, the Ks was found to be 2 ×10⁵ /M in assay [1] and 1.6 ×10⁵ /M in assay [4]. Moreover, the figures for the thermal shift (ΔTm) in assay [2] and in assay [3] were 2 °C and 3.1 °C, respectively.

Regarding `C#CCCCC(=O)N1CCC[C@H]1C(=O)N[C@@H](CCCNC(=N)N)C(=O)NCC(=O)N[C@@H](CCCNC(=N)N)CN1CCC[C@H]1C(N)=O`, the ΔTm in assay [2] and in assay [3] was 0 °C in each case. In assay [4], this compound had a Ks of 0.01 ×10⁵ /M.
